The target in the assay is T1, Cyclin E/CDK2 (Homo sapiens, UniProt P24941).
T1 construct: made in house; host or cells: insect cells
The experiment in a line: CDK2 FlashPlate Assay (Rb phosphorylation, 33P-ATP). It is filed as biochemical. Particulars: for IC50: recombinant human Cyclin E/CDK2, Rb substrate, 25 minutes at room temperature; for inhibition at 0.5 µM: Concentration 0.5 µM. Here is the method:
To determine inhibition of CDK2 activity, purified recombinant retinoblastoma (Rb) protein was coated on 96 well FlashPlates (New England Nuclear, Boston, MA). Rb is a natural substrate for phosphorylation by CDK2 (Herwig and Strauss Eurr. J. Biochem., Vol. 246 (1997) pp. 581-601 and references therein). Recombinant active human Cyclin E/CDK2 complexes were partially purified from extracts of insect cells. The active Cyclin E/CDK2 was added to the Rb-coated FlashPlates along with ^33P-ATP and dilutions of test compounds. Plates were incubated for 25 minutes at room temperature with shaking, then washed and counted in the Topcount scintillation counter (Packard Instrument Co., Downers Grove, IL). Dilutions of test compounds were tested in duplicate in each assay. The percent inhibition of Rb phosphorylation, which is a measure of the inhibition of CDK2 activity, was determined according to the following formula: [formula] where "test compound" refers to the average counts per minute of the test duplicates, "nonspecific" refers to the average counts per minute when no Cyclin E/CDK2 was added, and "total" refers to the average counts per minute when no compound was added.

For orientation: IC50 means the point on the concentration scale where inhibition reaches its midpoint. The term inhibition denotes the share of the control response that was lost under treatment.

`Cc1nc[nH]c1/C=C1\C(=O)Nc2ccc(N)c(N)c21` [RR, (Z)-4,5-Diamino-1,3-dihydro-3-[(4-methyl-1H-imidazol-5-yl)methylene]-2H-indol-2-one]: the IC50 is < 3.5 µM.

As to `COc1ccc(Nc2nc3c4c(ccc3[nH]2)NC(=O)/C4=C\c2[nH]ccc2OC)cc1OC` [Y, (Z)-2-[N-(3,4-Dimethoxyphenyl)amino]-8-[(3-methoxy-1H-pyrrol-2-yl)methylene]-3,6,7,8-tetrahydro-pyrrolo[3,2-e]benzimidazol-7-one], the inhibition at 0.5 µM is < 50%.

In the case of `COc1cc[nH]c1/C=C1\C(=O)Nc2ccc3[nH]c(NCc4ccc5c(c4)OCO5)nc3c21` [VV, (Z)-2-[N-(1,3-Benzodioxol-5-yl)methylamino]-8-[(3-methoxy-1H-pyrrol-2-yl)methylene]-3,6,7,8-tetrahydro-pyrrolo[3,2-e]-benzimidazol-7-one], the inhibition at 0.5 µM was < 50%.

`Cc1nc[nH]c1/C=C1\C(=O)Nc2ccc([N+](=O)[O-])c(N)c21` [QQ, (Z)-4-Amino-1,3-dihydro-3-[(4-methyl-1H-imidazol-5-yl)methylene]-5-nitro-2H-indol-2-one]: the IC50 was < 3.5 µM.

`COc1cc[nH]c1/C=C1\C(=O)Nc2ccc3[nH]c(Nc4ccc(N(C)C)cc4)nc3c21` [DD, (Z)-2-[N-(4-Dimethylaminophenyl)amino]-8-[(3-methoxy-1H-pyrrol-2-yl)methylene]-3,6,7,8-tetrahydro-pyrrolo[3,2-e]-benzimidazol-7-one]: the IC50 was < 3.5 µM.

As to `COC(=O)c1ccc(Nc2nc3c4c(ccc3[nH]2)NC(=O)/C4=C\c2[nH]ccc2OC)cc1` [EE, (Z)-4-[[8-[(3-Methoxy-1H-pyrrol-2-yl)methylene]-7-oxo-3,6,7,8-tetrahydro-imidazo[4,5-e]indol-2-yl]amino]-benzoic acid methyl ester], the inhibition at 0.5 µM was < 50%.

Consider `COc1cc[nH]c1/C=C1\C(=O)Nc2ccc3[nH]c(CCCc4ccccc4)nc3c21` [W, (Z)-2-[3-(Phenyl)propyl]-8-[(3-methoxy-1H-pyrrol-2-yl)methylene]-3,6,7,8-tetrahydro-pyrrolo[3,2-e]benzimidazol-7-one], for which the IC50 is < 3.5 µM.

In the case of `COc1cc[nH]c1/C=C1\C(=O)Nc2ccc3[nH]c(Nc4cccc(C(C)=O)c4)nc3c21` [BB, (Z)-2-[N-(3-Acetylphenyl)amino]-8-[(3-methoxy-1H-pyrrol-2-yl)methylene]-3,6,7,8-tetrahydro-pyrrolo[3,2-e]benzimidazol-7-one], the inhibition at 0.5 µM was < 50%.

In the case of `COc1ccc(Cc2nc3c4c(ccc3[nH]2)NC(=O)/C4=C\c2[nH]ccc2OC)cc1` [T, (Z)-2-[(4-Methoxyphenyl)methyl]-8-[(3-methoxy-1H-pyrrol-2-yl)methylene]-3,6,7,8-tetrahydro-pyrrolo[3,2-e]benzimidazol-7-one], the IC50 is < 3.5 µM.

Regarding `COc1cc[nH]c1/C=C1\C(=O)Nc2ccc3[nH]c(NC(C)c4ccccc4)nc3c21` (racemic) [HH, rac-(Z)-8-[(3-Methoxy-1H-pyrrol-2-yl)methylene]-2-[N-(1-phenylethyl)amino]-3,6,7,8-tetrahydro-pyrrolo[3,2-e]benzimidazol-7-one], the IC50 is < 3.5 µM.

For `CCOC(=O)c1ccc(Nc2nc3c4c(ccc3[nH]2)NC(=O)/C4=C\c2[nH]ccc2OC)cc1` [CC, (Z)-4-[[8-[(3-Methoxy-1H-pyrrol-2-yl)methylene]-7-oxo-3,6,7,8-tetrahydro-imidazo[4,5-e]indol-2-yl]amino]-benzoic acid ethyl ester], the inhibition at 0.5 µM is < 50%.

Turning to `COc1cc[nH]c1/C=C1\C(=O)Nc2ccc3[nH]c(CCc4ccc(O)cc4)nc3c21` [V, (Z)-2-[2-(4-Hydroxyphenyl)ethyl]-8-[(3-methoxy-1H-pyrrol-2-yl)methylene]-3,6,7,8-tetrahydro-pyrrolo[3,2-e]benzimidazol-7-one], the IC50 was < 3.5 µM.

Regarding `COc1cc[nH]c1/C=C1\C(=O)Nc2ccc3[nH]c(NCc4cccc5ccccc45)nc3c21` [WW, (Z)-8-[(3-Methoxy-1H-pyrrol-2-yl)methylene]-2-[N-(1-naphthalenyl)methylamino]-3,6,7,8-tetrahydro-pyrrolo[3,2-e]-benzimidazol-7-one], the inhibition at 0.5 µM is < 50%.

For `Cc1nc[nH]c1/C=C1\C(=O)Nc2ccc3[nH]cnc3c21` [SS], the IC50 is < 3.5 µM.

With `COc1cc[nH]c1/C=C1\C(=O)Nc2ccc3[nH]c(-c4ccccc4)nc3c21` [Q, (Z)-8-[(3-Methoxy-1H-pyrrol-2-yl)methylene]-2-phenyl-3,6,7,8-tatrahydro-pyrrolo[3,2-e]benzimidazol-7-one], the IC50 was < 3.5 µM.

For the compound `COc1cc[nH]c1/C=C1\C(=O)Nc2ccc3nc[nH]c3c21` [TT, (Z)-8-[(3-Methoxy-1H-pyrrol-2-yl)methylene]-3,6,7,8-tetrahydro-pyrrolo-[3,2-e]benzimidazol-7-one], the IC50 was < 3.5 µM.

On to `Cc1nc[nH]c1/C=C1\C(=O)Nc2ccc([N+](=O)[O-])c(F)c21` [OO, (Z)-1,3-Dihydro-4-fluoro-3-[(4-methyl-1H-imidazol-5-yl)methylene]-5-nitro-2H-indol-2-one], for which the IC50 is < 3.5 µM.

Regarding `COc1cc[nH]c1/C=C1\C(=O)Nc2ccc3[nH]c(NCCCc4ccccc4)nc3c21` [XX, (Z)-8-[(3-Methoxy-1H-pyrrol-2-yl)methylene]-2-[N-(3-phenylpropyl)amino]-3,6,7,8-tetrahydro-pyrrolo[3,2-e]benzimidazol-7-one], the inhibition at 0.5 µM was < 50%.

On to `COc1cc[nH]c1/C=C1\C(=O)Nc2ccc3[nH]c(C(O)c4ccccc4)nc3c21` (racemic) [U, rac-(Z)-2-(1-Hydroxy-1-phenyl-methyl)-8-[(3-methoxy-1H-pyrrol-2-yl)methylene]-3,6,7,8-tetrahydro-pyrrolo[3,2-e]benzimidazol-7-one], for which the IC50 was < 3.5 µM.

Take `COc1cc[nH]c1/C=C1\C(=O)Nc2ccc3[nH]c(NCC4CCCO4)nc3c21` (centres unmarked) [KK, (Z)-8-[(3-Methoxy-1H-pyrrol-2-yl)methylene]-2-[N-[(2-tetrahydrofuranyl)methyl]-amino]-3,6,7,8-tetrahydro-pyrrolo[3,2-e] benzimidazol-7-one]: the IC50 is < 3.5 µM.

For `COc1ccccc1Nc1nc2c3c(ccc2[nH]1)NC(=O)/C3=C\c1[nH]ccc1OC` [II, (Z)-2-[N-(2-Methoxyphenyl)amino]-8-[(3-methoxy-1H-pyrrol-2-yl)methylene]-3,6,7,8-tetrahydro-pyrrolo[3,2-e]benzimidazol-7-one], the inhibition at 0.5 µM is < 50%.

With `COc1ccc(Nc2nc3c4c(ccc3[nH]2)NC(=O)/C4=C\c2[nH]ccc2OC)cc1` [Z, (Z)-2-[N-(4-Methoxyphenyl)amino]-8-[(3-methoxy-1H-pyrrol-2-yl)methylene]-3,6,7,8-tetrahydro-pyrrolo[3,2-e]benzimidazol-7-one], the inhibition at 0.5 µM is < 50%.

Regarding `COc1cc[nH]c1/C=C1\C(=O)Nc2ccc3[nH]c(-c4ccccc4O)nc3c21` [S, (Z)-2-(2-Hydroxyphenyl)-8-[(3-methoxy-1H-pyrrol-2-yl)methylene]-3,6,7,8-tetrahydro-pyrrolo[3;2-e]benzimidazol-7-one], the IC50 was < 3.5 µM.

As to `COc1cc[nH]c1/C=C1\C(=O)Nc2ccc3[nH]c(NCCCCc4ccccc4)nc3c21` [JJ, (Z)-8-[(3-Methoxy-1H-pyrrol-2-yl)methylene]-2-[N-(4-phenylbutyl)amino]-3,6,7,8-tetrahydro-pyrrolo[3,2-e]benzimidazol-7-one], the inhibition at 0.5 µM is < 50%.

As for `O=C1Nc2ccc3[nH]c(-c4ccccc4)nc3c2/C1=C/c1ccc[nH]1` [O, (Z)-2-Phenyl-8-[(1H-pyrrol-2-yl)methylene]-3,6,7,8-tetrahydro-pyrrolo[3,2-e]benzimidazol-7-one], the IC50 is < 3.5 µM.

For `Cc1nc[nH]c1/C=C1\C(=O)Nc2ccc([N+](=O)[O-])c(N=[N+]=[N-])c21` [PP, (Z)-4-Azido-1,3-dihydro-3-[(4-methyl-1H-imidazol-5-yl)methylene]-5-nitro-2H-indol-2-one], the IC50 was < 3.5 µM.

Take `COCCCNc1nc2c3c(ccc2[nH]1)NC(=O)/C3=C\c1[nH]ccc1OC` [X, (Z)-2-[N-(3-Methoxypropyl)amino]-8-[(3-methoxy-1H-pyrrol-2-yl)methylene]-3,6,7,8-tetrahydro-pyrrolo[3,2-e]benzimidazol-7-one]: the IC50 is < 3.5 µM.

With `COc1cc[nH]c1/C=C1\C(=O)Nc2ccc3[nH]c(Nc4ccc5c(c4)CCC5)nc3c21` [YY, (Z)-2-[N-(2,3-Dihydro-1H-inden-5-yl)amino]-8-[(3-methoxy-1H-pyrrol-2-yl)methylene]-3,6,7,8-tetrahydro-pyrrolo[3,2-e]-benzimidazol-7-one], the inhibition at 0.5 µM is < 50%.

As for `COc1ccc(CCNc2nc3c4c(ccc3[nH]2)NC(=O)/C4=C\c2[nH]ccc2OC)cc1OC` [GG, (Z)-2-[N-[2-(3,4-Dimethoxyphenyl)ethyl]amino]-8-[(3-methoxy-1H-pyrrol-2-yl)methylene]-3,6,7,8-tetrahydro-pyrrolo[3,2-e]-benzimidazol-7-one], the inhibition at 0.5 µM was < 50%.

The values are drawn from EP1149106B1, “4,5-AZOLO-OXINDOLES” (F. HOFFMANN-LA ROCHE AG, priority 1998, dated 2000).
